In ChEMBL document CHEMBL1201862, “PubChem BioAssay data set” (2004):
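1) Cells in 96-well plates. 2) Compound, 48 h, 5 concentrations. 3) Linear interpolation between surrounding doses. 4) Unreached endpoint = highest concentration. Abbreviation: GI50, concentration required for 50% inhibition of growth.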 The source made the active and inactive calls. Cut-off read from the data, not from the text of the source: active = GI50 up to about 1.1 µM and inactive = higher.

Columns and labels:
Assay in all cases: NCI-60 cell line screen, 48 h
HOP-92 = system: HOP-92
Hs-578T = system: Hs-578T
SNB-75 = system: SNB-75
TK-10 = system: TK-10
OVCAR-3 = system: OVCAR-3
HOP-62 = system: HOP-62
LXFL 529 = system: LXFL 529
KM12 = system: KM12
COLO 205 = system: COLO 205
MDA-MB-231 = system: MDA-MB-231
M14 = system: M14
SF-268 = system: SF-268
CAKI-1 = system: CAKI-1
OVCAR-4 = system: OVCAR-4
DU-145 = system: DU-145
UO-31 = system: UO-31
MDA-N = system: MDA-N
SF-539 = system: SF-539
BT-549 = system: BT-549
SK-MEL-28 = system: SK-MEL-28

Which GI50 (HOP-92) does the source give for `COc1cc2c[n+](C)c3c4cc5c(cc4ccc3c2cc1OC)OCO5` [NITIDINE CHLORIDE] here?
The GI50 was 2.07 µM (inactive).

What about the GI50 (Hs-578T) of the same molecule?
Its GI50 is 2.9 µM (inactive).

What about the GI50 (SNB-75) of the same molecule?
Its GI50 is 0.22 µM (active).

And the GI50 (TK-10)?
The GI50 was 29.3 µM (inactive).

What about the GI50 (OVCAR-3) of the same molecule?
Its GI50 is 2.24 µM (inactive).

And the GI50 (HOP-62)?
Its GI50 is 2.18 µM (inactive).

What about the GI50 (LXFL 529) of the same molecule?
The GI50 was 1.4 µM (inactive).

And the GI50 (KM12)?
The GI50 was 2.07 µM (inactive).

What about the GI50 (COLO 205) of the same molecule?
The GI50 was 1.66 µM (inactive).

What about the GI50 (MDA-MB-231) of the same molecule?
Its GI50 is 2.62 µM (inactive).

What about the GI50 (M14) of the same molecule?
Its GI50 is 17.1 µM (inactive).

What about the GI50 (SF-268) of the same molecule?
The GI50 was 0.126 µM (active).

And the GI50 (CAKI-1)?
Its GI50 is 2.37 µM (inactive).

What about the GI50 (OVCAR-4) of the same molecule?
Its GI50 is 3.45 µM (inactive).

What about the GI50 (DU-145) of the same molecule?
The GI50 was 2.52 µM (inactive).

And the GI50 (UO-31)?
Its GI50 is > 61.4 µM (inactive).

And the GI50 (MDA-N)?
The GI50 was 64 µM (inactive).

What about the GI50 (SF-539) of the same molecule?
The GI50 was 1.78 µM (inactive).

What about the GI50 (BT-549) of the same molecule?
The GI50 was 6.5 µM (inactive).

What about the GI50 (SK-MEL-28) of the same molecule?
The GI50 was 9.38 µM (inactive).

What does the source list for `COC(=O)[C@@H]1C(=O)O[C@@H](c2ccc3c(c2)OCO3)[C@@H]1C(=O)OC.COC(=O)[C@H]1C(=O)O[C@@H](c2ccc3c(c2)OCO3)[C@@H]1C(=O)OC`?
GI50 (HOP-92): 43.8 µM (inactive); GI50 (SNB-75): > 100 µM (inactive); GI50 (TK-10): > 100 µM (inactive); GI50 (OVCAR-3): > 100 µM (inactive); GI50 (HOP-62): > 100 µM (inactive); GI50 (LXFL 529): > 100 µM (inactive); GI50 (KM12): > 100 µM (inactive); GI50 (COLO 205): > 100 µM (inactive); GI50 (M14): > 100 µM (inactive); GI50 (SF-268): > 100 µM (inactive); GI50 (CAKI-1): > 100 µM (inactive); GI50 (OVCAR-4): > 100 µM (inactive); GI50 (UO-31): > 100 µM (inactive); GI50 (SF-539): > 100 µM (inactive); GI50 (SK-MEL-28): > 100 µM (inactive)

What does the source list for `COc1ccc(NC(=O)CC/C(CC(=O)c2ccco2)=N/Nc2ccc([N+](=O)[O-])cc2[N+](=O)[O-])cc1`?
GI50 (HOP-92): 34.4 µM (inactive); GI50 (SNB-75): > 100 µM (inactive); GI50 (TK-10): > 100 µM (inactive); GI50 (OVCAR-3): 42.6 µM (inactive); GI50 (HOP-62): > 100 µM (inactive); GI50 (LXFL 529): 43.2 µM (inactive); GI50 (KM12): > 100 µM (inactive); GI50 (COLO 205): > 100 µM (inactive); GI50 (M14): > 100 µM (inactive); GI50 (SF-268): 64 µM (inactive); GI50 (CAKI-1): > 100 µM (inactive); GI50 (OVCAR-4): 96.2 µM (inactive); GI50 (UO-31): > 100 µM (inactive); GI50 (SF-539): > 100 µM (inactive); GI50 (SK-MEL-28): > 100 µM (inactive)

How did the GI50 (HOP-92) turn out when `CN(C)c1ccc(/C=c2\sc3nc4ccccc4n3c2=O)cc1` was run?
The GI50 was > 100 µM (inactive).

What about the GI50 (SNB-75) of the same molecule?
Its GI50 is 32.8 µM (inactive).

What about the GI50 (TK-10) of the same molecule?
Its GI50 is > 100 µM (inactive).

And the GI50 (OVCAR-3)?
The GI50 was > 100 µM (inactive).

What about the GI50 (HOP-62) of the same molecule?
The GI50 was > 100 µM (inactive).

What about the GI50 (LXFL 529) of the same molecule?
The GI50 was > 100 µM (inactive).

What about the GI50 (KM12) of the same molecule?
Its GI50 is > 100 µM (inactive).

What about the GI50 (COLO 205) of the same molecule?
The GI50 was > 100 µM (inactive).

And the GI50 (M14)?
The GI50 was > 100 µM (inactive).

What about the GI50 (SF-268) of the same molecule?
Its GI50 is > 100 µM (inactive).

And the GI50 (CAKI-1)?
Its GI50 is > 100 µM (inactive).

And the GI50 (OVCAR-4)?
The GI50 was > 100 µM (inactive).

What about the GI50 (UO-31) of the same molecule?
Its GI50 is > 100 µM (inactive).

What about the GI50 (SF-539) of the same molecule?
Its GI50 is > 100 µM (inactive).

What about the GI50 (SK-MEL-28) of the same molecule?
Its GI50 is > 100 µM (inactive).

`Cc1cc(Cl)cc2c1NC(=O)C2=O.O=C(c1ccccc1)C(F)(F)F` was tested. Which GI50 (HOP-92) did it give?
The GI50 was 52.6 µM (inactive).

What about the GI50 (SNB-75) of the same molecule?
Its GI50 is 41.1 µM (inactive).

And the GI50 (TK-10)?
Its GI50 is 57.5 µM (inactive).

And the GI50 (OVCAR-3)?
The GI50 was 35.3 µM (inactive).

What about the GI50 (HOP-62) of the same molecule?
Its GI50 is > 100 µM (inactive).

What about the GI50 (LXFL 529) of the same molecule?
The GI50 was 56.1 µM (inactive).

What about the GI50 (KM12) of the same molecule?
Its GI50 is 61 µM (inactive).

What about the GI50 (COLO 205) of the same molecule?
Its GI50 is 57.7 µM (inactive).

And the GI50 (M14)?
The GI50 was 67 µM (inactive).

What about the GI50 (SF-268) of the same molecule?
The GI50 was > 100 µM (inactive).

What about the GI50 (CAKI-1) of the same molecule?
Its GI50 is 39.3 µM (inactive).

And the GI50 (OVCAR-4)?
The GI50 was 33 µM (inactive).

And the GI50 (UO-31)?
The GI50 was 91.6 µM (inactive).

What about the GI50 (SF-539) of the same molecule?
Its GI50 is 47.9 µM (inactive).

And the GI50 (SK-MEL-28)?
Its GI50 is 93.1 µM (inactive).

For `Cc1c2ccncc2c(C)c2c1[nH]c1ccc(OCC(F)(F)F)cc12`, which GI50 (HOP-92) is on record?
The GI50 was 2.23 µM (inactive).

And the GI50 (SNB-75)?
The GI50 was 2.17 µM (inactive).

What about the GI50 (TK-10) of the same molecule?
Its GI50 is 2.1 µM (inactive).

And the GI50 (OVCAR-3)?
The GI50 was 1.85 µM (inactive).

And the GI50 (HOP-62)?
Its GI50 is 1.63 µM (inactive).

What about the GI50 (LXFL 529) of the same molecule?
Its GI50 is 1.2 µM (inactive).

What about the GI50 (KM12) of the same molecule?
Its GI50 is 1.36 µM (inactive).

What about the GI50 (COLO 205) of the same molecule?
The GI50 was 1.55 µM (inactive).

What about the GI50 (M14) of the same molecule?
Its GI50 is 1.96 µM (inactive).

And the GI50 (SF-268)?
Its GI50 is 1.55 µM (inactive).

What about the GI50 (CAKI-1) of the same molecule?
Its GI50 is 2.11 µM (inactive).

And the GI50 (OVCAR-4)?
The GI50 was 2.03 µM (inactive).

And the GI50 (UO-31)?
Its GI50 is 1.73 µM (inactive).

What about the GI50 (SF-539) of the same molecule?
The GI50 was 1.75 µM (inactive).

And the GI50 (SK-MEL-28)?
The GI50 was 1.73 µM (inactive).

How did the GI50 (HOP-92) turn out when `OCc1ccc(-c2ccc(-c3ccc(CO)s3)o2)s1` was run?
Its GI50 is 32.6 µM (inactive).

What about the GI50 (Hs-578T) of the same molecule?
The GI50 was 27.7 µM (inactive).

What about the GI50 (SNB-75) of the same molecule?
The GI50 was 36.6 µM (inactive).

And the GI50 (TK-10)?
The GI50 was 0.0249 µM (active).

And the GI50 (OVCAR-3)?
Its GI50 is 0.0703 µM (active).

And the GI50 (HOP-62)?
Its GI50 is 0.103 µM (active).

What about the GI50 (LXFL 529) of the same molecule?
Its GI50 is 0.0158 µM (active).

What about the GI50 (KM12) of the same molecule?
The GI50 was 20.7 µM (inactive).

And the GI50 (COLO 205)?
The GI50 was 0.335 µM (active).

What about the GI50 (MDA-MB-231) of the same molecule?
Its GI50 is 41.4 µM (inactive).

And the GI50 (M14)?
The GI50 was 30 µM (inactive).

And the GI50 (SF-268)?
The GI50 was 49 µM (inactive).

And the GI50 (CAKI-1)?
The GI50 was 0.0116 µM (active).

And the GI50 (OVCAR-4)?
Its GI50 is 0.212 µM (active).

And the GI50 (DU-145)?
The GI50 was 6.07 µM (inactive).

What about the GI50 (UO-31) of the same molecule?
The GI50 was 35.5 µM (inactive).

What about the GI50 (MDA-N) of the same molecule?
Its GI50 is 5.06 µM (inactive).

What about the GI50 (SF-539) of the same molecule?
The GI50 was 14.2 µM (inactive).

What about the GI50 (BT-549) of the same molecule?
The GI50 was 4.04 µM (inactive).

And the GI50 (SK-MEL-28)?
The GI50 was 42.7 µM (inactive).

Which results are given for `O=C(CCc1nnc2s/c(=C\c3ccccc3)c(=O)n12)Nc1cc(Cl)ccc1Cl`?
GI50 (HOP-92): > 100 µM (inactive); GI50 (SNB-75): > 100 µM (inactive); GI50 (TK-10): > 100 µM (inactive); GI50 (OVCAR-3): > 100 µM (inactive); GI50 (HOP-62): > 100 µM (inactive); GI50 (LXFL 529): > 100 µM (inactive); GI50 (KM12): > 100 µM (inactive); GI50 (COLO 205): > 100 µM (inactive); GI50 (M14): > 100 µM (inactive); GI50 (SF-268): > 100 µM (inactive); GI50 (CAKI-1): > 100 µM (inactive); GI50 (OVCAR-4): > 100 µM (inactive); GI50 (UO-31): > 100 µM (inactive); GI50 (SF-539): > 100 µM (inactive); GI50 (SK-MEL-28): > 100 µM (inactive)
